Experimental data published in ChEMBL document CHEMBL4428075, “New antiproliferative 7-(4-(N-substituted carbamoylmethyl)piperazin-1-yl) derivatives of ciprofloxacin induce cell cycle arrest at G2/M phase” (Bioorg Med Chem, 2016).

What was measured:
[1] = tested on: DU-145; assay: Antiproliferative activity against human DU145 cells at 10^-5 M after 48 hrs by SRB assay; type: functional; conditions: DU-145, 48 h, read-out: GI
[2] = tested on: CCRF-CEM; assay: Antiproliferative activity against human CCRF-CEM cells at 10^-5 M after 48 hrs by SRB assay; type: functional; conditions: read-out: GI
[3] = tested on: MOLT-4; assay: Antiproliferative activity against human MOLT4 cells at 10^-5 M after 48 hrs by SRB assay; type: functional; conditions: MOLT-4, 48 h, read-out: GI
[4] = tested on: HCT-15; assay: Antiproliferative activity against human HCT15 cells at 10^-5 M after 48 hrs by SRB assay; type: functional; conditions: HCT-15, 48 h, read-out: GI
[5] = tested on: A549; assay: Antiproliferative activity against human A549 cells after 24 hrs by BrdU incorporation assay; type: functional, cell-based; conditions: A549, 24 h
[6] = tested on: NCI-H460; assay: Antiproliferative activity against human NCI-H460 cells at 10^-5 M after 48 hrs by SRB assay; type: functional; conditions: NCI-H460, 48 h, read-out: GI
[7] = tested on: Malme-3M; assay: Antiproliferative activity against human MALME-3M cells at 10^-5 M after 48 hrs by SRB assay; type: functional; conditions: read-out: GI
[8] = tested on: SNB-75; assay: Antiproliferative activity against human SNB75 cells at 10^-5 M after 48 hrs by SRB assay; type: functional; conditions: SNB-75, 48 h, read-out: GI
[9] = tested on: M14; assay: Antiproliferative activity against human M14 cells at 10^-5 M after 48 hrs by SRB assay; type: functional; conditions: M14, 48 h, read-out: GI
[10] = tested on: SF-268; assay: Antiproliferative activity against human SF268 cells at 10^-5 M after 48 hrs by SRB assay; type: functional; conditions: SF-268, 48 h, read-out: GI
[11] = tested on: COLO 205; assay: Antiproliferative activity against human COLO205 cells at 10^-5 M after 48 hrs by SRB assay; type: functional; conditions: COLO 205, 48 h, read-out: GI
[12] = tested on: RPMI-8226; assay: Antiproliferative activity against human RPMI8226 cells at 10^-5 M after 48 hrs by SRB assay; type: functional; conditions: RPMI-8226, 48 h, read-out: GI
[13] = tested on: UACC-62; assay: Antiproliferative activity against human UACC62 cells at 10^-5 M after 48 hrs by SRB assay; type: functional; conditions: UACC-62, 48 h, read-out: GI
[14] = tested on: EKVX; assay: Antiproliferative activity against human EKVX cells at 10^-5 M after 48 hrs by SRB assay; type: functional; conditions: read-out: GI
[15] = tested on: OVCAR-4; assay: Antiproliferative activity against human OVCAR4 cells at 10^-5 M after 48 hrs by SRB assay; type: functional; conditions: OVCAR-4, 48 h, read-out: GI
[16] = tested on: HOP-62; assay: Antiproliferative activity against human HOP62 cells at 10^-5 M after 48 hrs by SRB assay; type: functional; conditions: HOP-62, 48 h, read-out: GI
[17] = tested on: IGROV-1; assay: Antiproliferative activity against human IGROV1 cells at 10^-5 M after 48 hrs by SRB assay; type: functional; conditions: IGROV-1, 48 h, read-out: GI
[18] = tested on: NCI/ADR-RES; assay: Antiproliferative activity against human NCI-ADR-RES cells at 10^-5 M after 48 hrs by SRB assay; type: functional; conditions: read-out: GI
[19] = tested on: NCI-H23; assay: Antiproliferative activity against human NCI-H23 cells at 10^-5 M after 48 hrs by SRB assay; type: functional; conditions: NCI-H23, 48 h, read-out: GI
[20] = tested on: RXF 393; assay: Antiproliferative activity against human RXF393 cells at 10^-5 M after 48 hrs by SRB assay; type: functional; conditions: RXF 393, 48 h, read-out: GI
[21] = tested on: 786-0; assay: Antiproliferative activity against human 786-0 cells at 10^-5 M after 48 hrs by SRB assay; type: functional; conditions: 786-0, 48 h, read-out: GI
[22] = tested on: OVCAR-3; assay: Antiproliferative activity against human OVCAR3 cells at 10^-5 M after 48 hrs by SRB assay; type: functional; conditions: OVCAR-3, 48 h, read-out: GI
[23] = tested on: NCI-H322M; assay: Antiproliferative activity against human NCI-H322M cells at 10^-5 M after 48 hrs by SRB assay; type: functional; conditions: read-out: GI
[24] = tested on: OVCAR-5; assay: Antiproliferative activity against human OVCAR5 cells at 10^-5 M after 48 hrs by SRB assay; type: functional; conditions: OVCAR-5, 48 h, read-out: GI
[25] = tested on: SK-OV-3; assay: Antiproliferative activity against human SKOV3 cells at 10^-5 M after 48 hrs by SRB assay; type: functional; conditions: SK-OV-3, 48 h, read-out: GI
[26] = tested on: HCC 2998; assay: Antiproliferative activity against human HCC2998 cells at 10^-5 M after 48 hrs by SRB assay; type: functional; conditions: HCC 2998, 48 h, read-out: GI
[27] = tested on: NCI-H522; assay: Antiproliferative activity against human NCI-H522 cells at 10^-5 M after 48 hrs by SRB assay; type: functional; conditions: NCI-H522, 48 h, read-out: GI
[28] = tested on: A549; assay: Antiproliferative activity against human A549 cells at 10^-5 M after 48 hrs by SRB assay; type: functional; conditions: A549, 48 h, read-out: GI
[29] = tested on: UACC-257; assay: Antiproliferative activity against human UACC257 cells at 10^-5 M after 48 hrs by SRB assay; type: functional; conditions: UACC-257, 48 h, read-out: GI
[30] = tested on: SN12C; assay: Antiproliferative activity against human SN12C cells at 10^-5 M after 48 hrs by SRB assay; type: functional; conditions: read-out: GI
[31] = tested on: SK-MEL-2; assay: Antiproliferative activity against human SK-MEL-2 cells at 10^-5 M after 48 hrs by SRB assay; type: functional; conditions: SK-MEL-2, 48 h, read-out: GI
[32] = tested on: U-251; assay: Antiproliferative activity against human U251 cells at 10^-5 M after 48 hrs by SRB assay; type: functional; conditions: U-251, 48 h, read-out: GI
[33] = tested on: SF-539; assay: Antiproliferative activity against human SF539 cells at 10^-5 M after 48 hrs by SRB assay; type: functional; conditions: SF-539, 48 h, read-out: GI
[34] = tested on: SK-MEL-5; assay: Antiproliferative activity against human SK-MEL-5 cells at 10^-5 M after 48 hrs by SRB assay; type: functional; conditions: SK-MEL-5, 48 h, read-out: GI
[35] = tested on: SF-295; assay: Antiproliferative activity against human SF295 cells at 10^-5 M after 48 hrs by SRB assay; type: functional; conditions: SF-295, 48 h, read-out: GI
[36] = tested on: A498; assay: Antiproliferative activity against human A498 cells at 10^-5 M after 48 hrs by SRB assay; type: functional; conditions: A498, 48 h, read-out: GI
[37] = tested on: MDA-MB-468; assay: Antiproliferative activity against human MDA-MB-468 cells at 10^-5 M after 48 hrs by SRB assay; type: functional; conditions: MDA-MB-468, 48 h, read-out: GI
[38] = tested on: SW-620; assay: Antiproliferative activity against human SW620 cells at 10^-5 M after 48 hrs by SRB assay; type: functional; conditions: SW-620, 48 h, read-out: GI
[39] = tested on: PC-3; assay: Antiproliferative activity against human PC3 cells at 10^-5 M after 48 hrs by SRB assay; type: functional; conditions: PC-3, 48 h, read-out: GI

| SMILES | inhibition of growth at 10 µM [1] [%] | inhibition of growth at 10 µM [2] [%] | inhibition of growth at 10 µM [3] [%] | inhibition of growth at 10 µM [4] [%] | IC50 [5] [µM] | inhibition of growth at 10 µM [6] [%] | inhibition of growth at 10 µM [7] [%] | inhibition of growth at 10 µM [8] [%] | inhibition of growth at 10 µM [9] [%] | inhibition of growth at 10 µM [10] [%] | inhibition of growth at 10 µM [11] [%] | inhibition of growth at 10 µM [12] [%] | inhibition of growth at 10 µM [13] [%] | inhibition of growth at 10 µM [14] [%] | inhibition of growth at 10 µM [15] [%] | inhibition of growth at 10 µM [16] [%] | inhibition of growth at 10 µM [17] [%] | inhibition of growth at 10 µM [18] [%] | inhibition of growth at 10 µM [19] [%] | inhibition of growth at 10 µM [20] [%] | further results |
| --- | --- | --- | --- | --- | --- | --- | --- | --- | --- | --- | --- | --- | --- | --- | --- | --- | --- | --- | --- | --- | --- |
| COc1ccc(NC(=O)CN2CCN(c3cc4c(cc3F)c(=O)c(C(=O)O)cn4C3CC3)CC2)cc1 | 0 | 0 | 0 | 0 | 24.8 | 6.32 | 5.64 | 12 | 8.75 | 6.72 | 2.63 | 3.36 | 10.5 | 0 | 0 | 13 | 0 | 0 | 7.04 | 11.8 | inhibition of growth at 10 µM [21]: 20.9%; inhibition of growth at 10 µM [22]: 0%; inhibition of growth at 10 µM [23]: 26.4%; inhibition of growth at 10 µM [24]: 0%; inhibition of growth at 10 µM [25]: 17%; inhibition of growth at 10 µM [26]: 0%; inhibition of growth at 10 µM [27]: 12.9%; inhibition of growth at 10 µM [28]: 7.18%; inhibition of growth at 10 µM [29]: 16.9%; inhibition of growth at 10 µM [30]: 4%; inhibition of growth at 10 µM [31]: 0%; inhibition of growth at 10 µM [32]: 5.8%; inhibition of growth at 10 µM [33]: 5.31%; inhibition of growth at 10 µM [34]: 3.22%; inhibition of growth at 10 µM [35]: 2.32%; inhibition of growth at 10 µM [36]: 37.6%; inhibition of growth at 10 µM [37]: 6.39%; inhibition of growth at 10 µM [38]: 0%; inhibition of growth at 10 µM [39]: 11.6% |
| COc1cc(NC(=O)CN2CCN(c3cc4c(cc3F)c(=O)c(C(=O)O)cn4C3CC3)CC2)cc(OC)c1OC | 0 | 23.2 | 0 | 0 | > 100 | 0 | 0 | 0 | 0 | 0 | 0 | 2.8 | 0.79 | 0 | 0 | 8.5 | 0 | 0 | 0 | 0 | inhibition of growth at 10 µM [21]: 15.2%; inhibition of growth at 10 µM [22]: 6.06%; inhibition of growth at 10 µM [23]: 0%; inhibition of growth at 10 µM [24]: 0%; inhibition of growth at 10 µM [25]: 5.77%; inhibition of growth at 10 µM [26]: 0%; inhibition of growth at 10 µM [27]: 24.4%; inhibition of growth at 10 µM [28]: 0%; inhibition of growth at 10 µM [29]: 3.24%; inhibition of growth at 10 µM [30]: 2.78%; inhibition of growth at 10 µM [31]: 7.36%; inhibition of growth at 10 µM [32]: 0%; inhibition of growth at 10 µM [33]: 0%; inhibition of growth at 10 µM [34]: 0%; inhibition of growth at 10 µM [35]: 0%; inhibition of growth at 10 µM [36]: 0%; inhibition of growth at 10 µM [37]: 0%; inhibition of growth at 10 µM [38]: 0%; inhibition of growth at 10 µM [39]: 14.5% |
